Converted amounts (≈) assume the structure as drawn.
How the values were obtained:
Type in all cases: functional
[1] = test system: Streptococcus pneumoniae; assay: Antibacterial activity against erythromycin-resistant Streptococcus pneumoniae A22072 expressing mef gene by the broth microdilution method
[2] = test system: Staphylococcus aureus; assay: Antibacterial activity against […] Staphylococcus aureus ATCC 29213 by the broth microdilution method
[3] = test system: Streptococcus pneumoniae; assay: Antibacterial activity against erythromycin-resistant Streptococcus pneumoniae AB11 expressing erm and mef gene by the broth microdilution method
[4] = test system: Streptococcus pneumoniae; assay: Antibacterial activity against erythromycin-resistant Streptococcus pneumoniae B1 expressing erm gene by the broth microdilution method
[5] = test system: Streptococcus pneumoniae; assay: Antibacterial activity against erythromycin-susceptible Streptococcus pneumoniae ATCC 49619 by the broth microdilution method
[6] = test system: Staphylococcus aureus; assay: Antibacterial activity against penicillin-resistant Staphylococcus aureus by the broth microdilution method
[7] = test system: Staphylococcus aureus; assay: Antibacterial activity against erythromycin-susceptible Staphylococcus aureus ATCC 25923 by the broth microdilution method

Compound `CC[C@H]1OC(=O)[C@H](C)[C@@H](O[C@H]2C[C@@](C)(OC)[C@@H](OC(=O)NNC(=O)c3ccc(OC)cc3)[C@H](C)O2)[C@H](C)[C@@H](O[C@@H]2O[C@H](C)C[C@H](N(C)C)[C@H]2O)[C@](C)(O)C[C@@H](C)CN(C)[C@H](C)[C@H]2OC(=O)O[C@@]21C` has an MIC [1] of 0.25 µg/mL (≈ 0.258 µM), an MIC [2] of 32 µg/mL (≈ 33.1 µM) and an MIC [3] of 64 µg/mL (≈ 66.2 µM). It also gave an MIC [4] of 16 µg/mL (≈ 16.5 µM), an MIC [5] of 4 µg/mL (≈ 4.14 µM) and an MIC [6] of 8 µg/mL (≈ 8.27 µM). For the same compound, the MIC [7] was 2 µg/mL (≈ 2.07 µM).

Work on `CC[C@H]1OC(=O)[C@H](C)[C@@H](O[C@H]2C[C@@](C)(OC)[C@@H](OC(=O)NNC(=O)c3ccccc3OC)[C@H](C)O2)[C@H](C)[C@@H](O[C@@H]2O[C@H](C)C[C@H](N(C)C)[C@H]2O)[C@](C)(O)C[C@@H](C)CN(C)[C@H](C)[C@H]2OC(=O)O[C@@]21C` yielded an MIC [1] of 0.5 µg/mL (≈ 0.517 µM), an MIC [2] of 16 µg/mL (≈ 16.5 µM) and an MIC [3] of 32 µg/mL (≈ 33.1 µM). It also gave an MIC [4] of 8 µg/mL (≈ 8.27 µM), an MIC [5] of 1 µg/mL (≈ 1.03 µM) and an MIC [6] of 16 µg/mL (≈ 16.5 µM). The MIC [7] was 4 µg/mL (≈ 4.14 µM).

Work on `CC[C@H]1OC(=O)[C@H](C)[C@@H](O[C@H]2C[C@@](C)(OC)[C@@H](OC(=O)NNC(=O)c3ccc(OC)c(OC)c3)[C@H](C)O2)[C@H](C)[C@@H](O[C@@H]2O[C@H](C)C[C@H](N(C)C)[C@H]2O)[C@](C)(O)C[C@@H](C)CN(C)[C@H](C)[C@H]2OC(=O)O[C@@]21C` yielded an MIC [1] of 0.25 µg/mL (≈ 0.251 µM), an MIC [2] of 4 µg/mL (≈ 4.01 µM) and an MIC [3] of 64 µg/mL (≈ 64.2 µM). The MIC [4] was 32 µg/mL (≈ 32.1 µM), the MIC [5] was 1 µg/mL (≈ 1 µM) and the MIC [6] was 1 µg/mL (≈ 1 µM). It also gave an MIC [7] of 4 µg/mL (≈ 4.01 µM).

In the case of `CC[C@H]1OC(=O)[C@H](C)[C@@H](O[C@H]2C[C@@](C)(OC)[C@@H](OC(=O)NNC(=O)c3ccc(F)cc3)[C@H](C)O2)[C@H](C)[C@@H](O[C@@H]2O[C@H](C)C[C@H](N(C)C)[C@H]2O)[C@](C)(O)C[C@@H](C)CN(C)[C@H](C)[C@H]2OC(=O)O[C@@]21C`, the MIC [1] is reported as 1 µg/mL (≈ 1.05 µM), the MIC [2] is reported as 32 µg/mL (≈ 33.5 µM) and the MIC [3] is reported as 64 µg/mL (≈ 67 µM). It also gave an MIC [4] of 32 µg/mL (≈ 33.5 µM), an MIC [5] of 4 µg/mL (≈ 4.19 µM) and an MIC [6] of 4 µg/mL (≈ 4.19 µM). For the same compound, the MIC [7] was 4 µg/mL (≈ 4.19 µM).

For `CC[C@H]1OC(=O)[C@H](C)[C@@H](O[C@H]2C[C@@](C)(OC)[C@@H](OC(=O)NNC(=O)c3ccc(Cl)cc3)[C@H](C)O2)[C@H](C)[C@@H](O[C@@H]2O[C@H](C)C[C@H](N(C)C)[C@H]2O)[C@](C)(O)C[C@@H](C)CN(C)[C@H](C)[C@H]2OC(=O)O[C@@]21C`, the MIC [1] was 0.25 µg/mL (≈ 0.257 µM), the MIC [2] was 4 µg/mL (≈ 4.12 µM) and the MIC [3] was 64 µg/mL (≈ 65.9 µM). It also gave an MIC [4] of 32 µg/mL (≈ 32.9 µM), an MIC [5] of 1 µg/mL (≈ 1.03 µM) and an MIC [6] of 16 µg/mL (≈ 16.5 µM). The MIC [7] was 2 µg/mL (≈ 2.06 µM).

Work on `CC[C@H]1OC(=O)[C@H](C)[C@@H](O[C@H]2C[C@@](C)(OC)[C@@H](OC(=O)NNC(=O)c3ccc(Br)cc3)[C@H](C)O2)[C@H](C)[C@@H](O[C@@H]2O[C@H](C)C[C@H](N(C)C)[C@H]2O)[C@](C)(O)C[C@@H](C)CN(C)[C@H](C)[C@H]2OC(=O)O[C@@]21C` yielded an MIC [1] of 0.12 µg/mL (≈ 0.118 µM), an MIC [2] of 1 µg/mL (≈ 0.984 µM) and an MIC [3] of 16 µg/mL (≈ 15.7 µM). It also gave an MIC [4] of 4 µg/mL (≈ 3.94 µM), an MIC [5] of 1 µg/mL (≈ 0.984 µM) and an MIC [6] of 4 µg/mL (≈ 3.94 µM). For the same compound, the MIC [7] was 2 µg/mL (≈ 1.97 µM).

Compound `CC[C@H]1OC(=O)[C@H](C)[C@@H](O[C@H]2C[C@@](C)(OC)[C@@H](OC(=O)NNC(=O)c3ccc(Cl)cc3Cl)[C@H](C)O2)[C@H](C)[C@@H](O[C@@H]2O[C@H](C)C[C@H](N(C)C)[C@H]2O)[C@](C)(O)C[C@@H](C)CN(C)[C@H](C)[C@H]2OC(=O)O[C@@]21C` has an MIC [1] of 0.25 µg/mL (≈ 0.249 µM), an MIC [2] of 16 µg/mL (≈ 15.9 µM) and an MIC [3] of 16 µg/mL (≈ 15.9 µM). For the same compound, the MIC [4] was 4 µg/mL (≈ 3.98 µM), the MIC [5] was 1 µg/mL (≈ 0.994 µM) and the MIC [6] was 16 µg/mL (≈ 15.9 µM). It also gave an MIC [7] of 4 µg/mL (≈ 3.98 µM).

Work on `CC[C@H]1OC(=O)[C@H](C)[C@@H](O[C@H]2C[C@@](C)(OC)[C@@H](OC(=O)NNC(=O)c3ccc([N+](=O)[O-])cc3)[C@H](C)O2)[C@H](C)[C@@H](O[C@@H]2O[C@H](C)C[C@H](N(C)C)[C@H]2O)[C@](C)(O)C[C@@H](C)CN(C)[C@H](C)[C@H]2OC(=O)O[C@@]21C` yielded an MIC [1] of 1 µg/mL (≈ 1.02 µM), an MIC [2] of 4 µg/mL (≈ 4.07 µM) and an MIC [3] of 32 µg/mL (≈ 32.6 µM). It also gave an MIC [4] of 16 µg/mL (≈ 16.3 µM), an MIC [5] of 0.25 µg/mL (≈ 0.255 µM) and an MIC [6] of 4 µg/mL (≈ 4.07 µM). For the same compound, the MIC [7] was 4 µg/mL (≈ 4.07 µM).

From ChEMBL document CHEMBL1828549, “Novel C-4'' modified azithromycin analogs with remarkably enhanced activity against erythromycin-resistant Streptococcus pneumoniae: the synthesis and antimicrobial evaluation” (2011)
